Source: publication PMC10397204, “Revealing protonation states and tracking substrate in serine hydroxymethyltransferase with room-temperature X-ray and neutron crystallography” (Communications Chemistry, 2023)

Columns and labels:
TthSHMT [1] = target: T1, TthSHMT (Thermus thermophilus, UniProt Q5SI56); experiment: joint room-temperature X-ray/neutron crystallography, crystal soak; format: binding; settings: pH 5.5, 500 mM; D2O H/D exchange; labelled compound; noncovalent pre-Michaelis complex in peripheral site, protomer A, sulfate in substrate site
T1 construct: gene glyA; recombinant in E. coli BL21(DE3), codon-optimized glyA, N-terminal His6-tag with linker removed by TEV, starts at Ser3; homodimer, active site formed by residues of both protomers
T1 sequence (Q5SI56 3-407): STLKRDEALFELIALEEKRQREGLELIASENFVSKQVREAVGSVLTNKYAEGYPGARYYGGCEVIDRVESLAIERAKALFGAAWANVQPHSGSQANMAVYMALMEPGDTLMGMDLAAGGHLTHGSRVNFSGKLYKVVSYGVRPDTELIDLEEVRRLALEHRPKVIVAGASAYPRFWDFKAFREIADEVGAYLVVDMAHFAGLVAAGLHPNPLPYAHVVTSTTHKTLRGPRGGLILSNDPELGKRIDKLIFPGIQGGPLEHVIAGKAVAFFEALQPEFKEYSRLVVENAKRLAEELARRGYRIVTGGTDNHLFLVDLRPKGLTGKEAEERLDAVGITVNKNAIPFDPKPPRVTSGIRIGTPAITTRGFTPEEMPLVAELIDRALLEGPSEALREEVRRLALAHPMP

TthSHMT [2] = target: T1, TthSHMT; experiment: joint room-temperature X-ray/neutron crystallography; format: binding; settings: pH 5.5; covalent; Schiff base with Lys226 (internal aldimine)

Row | SMILES | joint room-temperature X-ray/neutron crystallography, crystal soak (TthSHMT [1]) | joint room-temperature X-ray/neutron crystallography (TthSHMT [2])
1 | N[C@@H](CO)C(=O)O [L-Ser-d7] | we observed L-Ser-d7 bound in a pocket on the periphery of the active site | –
2 | Cc1ncc(COP(=O)(O)O)c(C=O)c1O [PLP] | – | In TthSHMT, PLP is covalently bound to Lys226 (Lys280 in hSHMT2) through a Schiff base
